According to ChEMBL document CHEMBL4507277:

How the values were obtained:
[1] = target: Dual specificity mitogen-activated protein kinase kinase 1 (Homo sapiens) (UniProt Q02750); settings: Compound concentration 1000.0 nM
[2] = target: Interferon-induced, double-stranded RNA-activated protein kinase (Homo sapiens) (UniProt P19525); settings: Compound concentration 1000.0 nM
[3] = system: Phosphatidylinositol 4,5-bisphosphate 3-kinase catalytic subunit alpha isoform (Homo sapiens), P42336 [E545A]; settings: Compound concentration 1000.0 nM
[4] = system: Mast/stem cell growth factor receptor Kit (Homo sapiens), P10721 [A829P]; settings: Compound concentration 1000.0 nM
[5] = target: Ephrin type-A receptor 7 (Homo sapiens) (UniProt Q15375); settings: Compound concentration 1000.0 nM
[6] = target: Cyclin-dependent kinase 11A (Homo sapiens) (UniProt Q9UQ88); settings: Compound concentration 1000.0 nM
[7] = target: MAP kinase-activated protein kinase 2 (Homo sapiens) (UniProt P49137); settings: Compound concentration 1000.0 nM
[8] = target: LIM domain kinase 2 (Homo sapiens) (UniProt P53671); settings: Compound concentration 1000.0 nM
[9] = target: Mitogen-activated protein kinase kinase kinase 3 (Homo sapiens) (UniProt Q99759); settings: Compound concentration 1000.0 nM
[10] = target: Muscarinic acetylcholine receptor M4 (Homo sapiens) (UniProt P08173); settings: Compound concentration 10.0 uM
[11] = target: 5-hydroxytryptamine receptor 6 (Homo sapiens) (UniProt P50406); settings: Compound concentration 10.0 uM
[12] = target: Mitogen-activated protein kinase kinase kinase 1 (Homo sapiens) (UniProt Q13233); settings: Compound concentration 1000.0 nM
[13] = target: Phosphatidylinositol 4,5-bisphosphate 3-kinase catalytic subunit alpha isoform (Homo sapiens) (UniProt P42336); settings: Compound concentration 1000.0 nM
[14] = target: Serine/threonine-protein kinase PAK 4 (Homo sapiens) (UniProt O96013); settings: Compound concentration 1000.0 nM
[15] = target: 5-hydroxytryptamine receptor 2C (Homo sapiens) (UniProt P28335); settings: Compound concentration 10.0 uM
[16] = target: Mitogen-activated protein kinase kinase kinase 15 (Homo sapiens) (UniProt Q6ZN16); settings: Compound concentration 1000.0 nM
[17] = target: Homeodomain-interacting protein kinase 3 (Homo sapiens) (UniProt Q9H422); settings: Compound concentration 1000.0 nM
[18] = target: SRSF protein kinase 3 (Homo sapiens) (UniProt Q9UPE1); settings: Compound concentration 1000.0 nM
[19] = target: Mitogen-activated protein kinase kinase kinase kinase 5 (Homo sapiens) (UniProt Q9Y4K4); settings: Compound concentration 1000.0 nM
[20] = target: Dual specificity mitogen-activated protein kinase kinase 7 (Homo sapiens) (UniProt O14733); settings: Compound concentration 1000.0 nM
[21] = system: Tyrosine-protein kinase ABL1 (Homo sapiens), P00519 [H396P]; settings: Compound concentration 1000.0 nM
[22] = target: Mitogen-activated protein kinase kinase kinase 11 (Homo sapiens) (UniProt Q16584); settings: Compound concentration 1000.0 nM
[23] = target: BDNF/NT-3 growth factors receptor (Homo sapiens) (UniProt Q16620); settings: Compound concentration 1000.0 nM
[24] = target: Aurora kinase B (Homo sapiens) (UniProt Q96GD4); settings: Compound concentration 1000.0 nM
[25] = target: Bone morphogenetic protein receptor type-2 (Homo sapiens) (UniProt Q13873); settings: Compound concentration 1000.0 nM
[26] = target: Beta-2 adrenergic receptor (Homo sapiens) (UniProt P07550); settings: Compound concentration 10.0 uM
[27] = target: Serine/threonine-protein kinase Sgk2 (Homo sapiens) (UniProt Q9HBY8); settings: Compound concentration 1000.0 nM
[28] = target: Mitogen-activated protein kinase kinase kinase 6 (Homo sapiens) (UniProt O95382); settings: Compound concentration 1000.0 nM
[29] = target: Bone morphogenetic protein receptor type-1B (Homo sapiens) (UniProt O00238); settings: Compound concentration 1000.0 nM
[30] = system: Phosphatidylinositol 4,5-bisphosphate 3-kinase catalytic subunit alpha isoform (Homo sapiens), P42336 [C420R]; settings: Compound concentration 1000.0 nM
[31] = target: Phosphatidylinositol 4-phosphate 5-kinase type-1 gamma (Homo sapiens) (UniProt O60331); settings: Compound concentration 1000.0 nM
[32] = target: Mitogen-activated protein kinase 12 (Homo sapiens) (UniProt P53778); settings: Compound concentration 1000.0 nM
[33] = target: Serine/threonine-protein kinase RIO1 (Homo sapiens) (UniProt Q9BRS2); settings: Compound concentration 1000.0 nM
[34] = target: Tyrosine-protein kinase Srms (Homo sapiens) (UniProt Q9H3Y6); settings: Compound concentration 1000.0 nM
[35] = target: Cyclin-dependent kinase 4 (Homo sapiens) (UniProt P11802); settings: Compound concentration 1000.0 nM
[36] = target: Serine/threonine-protein kinase DCLK1 (Homo sapiens) (UniProt O15075); settings: Compound concentration 1000.0 nM
[37] = target: Serine/threonine-protein kinase Nek10 (Homo sapiens) (UniProt Q6ZWH5); settings: Compound concentration 1000.0 nM
[38] = system: Phosphatidylinositol 4,5-bisphosphate 3-kinase catalytic subunit alpha isoform (Homo sapiens), P42336 [H1047L]; settings: Compound concentration 1000.0 nM
[39] = target: TRAF2 and NCK-interacting protein kinase (Homo sapiens) (UniProt Q9UKE5); settings: Compound concentration 1000.0 nM
[40] = target: Myosin light chain kinase 2, skeletal/cardiac muscle (Homo sapiens) (UniProt Q9H1R3); settings: Compound concentration 1000.0 nM
[41] = system: Epidermal growth factor receptor (Homo sapiens), P00533 [UNDEFINED MUTATION]; settings: Compound concentration 1000.0 nM
[42] = target: Tyrosine-protein kinase SYK (Homo sapiens) (UniProt P43405); settings: Compound concentration 1000.0 nM
[43] = target: Serine/threonine-protein kinase 38 (Homo sapiens) (UniProt Q15208); settings: Compound concentration 1000.0 nM
[44] = target: Leucine-rich repeat serine/threonine-protein kinase 2 (Homo sapiens) (UniProt Q5S007); settings: Compound concentration 1000.0 nM

Sequence of Muscarinic acetylcholine receptor M4 (Homo sapiens) (P08173 whole entry): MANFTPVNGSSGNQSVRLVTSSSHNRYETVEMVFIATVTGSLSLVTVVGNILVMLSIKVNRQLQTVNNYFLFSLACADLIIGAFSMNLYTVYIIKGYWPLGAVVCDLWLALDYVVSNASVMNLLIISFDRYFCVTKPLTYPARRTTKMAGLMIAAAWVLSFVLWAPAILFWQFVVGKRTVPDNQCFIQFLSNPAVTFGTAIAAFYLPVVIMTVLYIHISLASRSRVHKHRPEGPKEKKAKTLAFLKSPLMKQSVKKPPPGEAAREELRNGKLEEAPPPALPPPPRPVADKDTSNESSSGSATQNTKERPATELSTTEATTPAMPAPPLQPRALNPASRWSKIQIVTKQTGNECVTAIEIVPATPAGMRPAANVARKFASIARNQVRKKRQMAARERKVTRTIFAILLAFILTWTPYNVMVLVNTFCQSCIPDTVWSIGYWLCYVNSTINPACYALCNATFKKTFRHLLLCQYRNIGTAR
Sequence of Phosphatidylinositol 4,5-bisphosphate 3-kinase catalytic subunit alpha isoform (Homo sapiens), P42336 [C420R] (P42336 whole entry C420R, canonical isoform): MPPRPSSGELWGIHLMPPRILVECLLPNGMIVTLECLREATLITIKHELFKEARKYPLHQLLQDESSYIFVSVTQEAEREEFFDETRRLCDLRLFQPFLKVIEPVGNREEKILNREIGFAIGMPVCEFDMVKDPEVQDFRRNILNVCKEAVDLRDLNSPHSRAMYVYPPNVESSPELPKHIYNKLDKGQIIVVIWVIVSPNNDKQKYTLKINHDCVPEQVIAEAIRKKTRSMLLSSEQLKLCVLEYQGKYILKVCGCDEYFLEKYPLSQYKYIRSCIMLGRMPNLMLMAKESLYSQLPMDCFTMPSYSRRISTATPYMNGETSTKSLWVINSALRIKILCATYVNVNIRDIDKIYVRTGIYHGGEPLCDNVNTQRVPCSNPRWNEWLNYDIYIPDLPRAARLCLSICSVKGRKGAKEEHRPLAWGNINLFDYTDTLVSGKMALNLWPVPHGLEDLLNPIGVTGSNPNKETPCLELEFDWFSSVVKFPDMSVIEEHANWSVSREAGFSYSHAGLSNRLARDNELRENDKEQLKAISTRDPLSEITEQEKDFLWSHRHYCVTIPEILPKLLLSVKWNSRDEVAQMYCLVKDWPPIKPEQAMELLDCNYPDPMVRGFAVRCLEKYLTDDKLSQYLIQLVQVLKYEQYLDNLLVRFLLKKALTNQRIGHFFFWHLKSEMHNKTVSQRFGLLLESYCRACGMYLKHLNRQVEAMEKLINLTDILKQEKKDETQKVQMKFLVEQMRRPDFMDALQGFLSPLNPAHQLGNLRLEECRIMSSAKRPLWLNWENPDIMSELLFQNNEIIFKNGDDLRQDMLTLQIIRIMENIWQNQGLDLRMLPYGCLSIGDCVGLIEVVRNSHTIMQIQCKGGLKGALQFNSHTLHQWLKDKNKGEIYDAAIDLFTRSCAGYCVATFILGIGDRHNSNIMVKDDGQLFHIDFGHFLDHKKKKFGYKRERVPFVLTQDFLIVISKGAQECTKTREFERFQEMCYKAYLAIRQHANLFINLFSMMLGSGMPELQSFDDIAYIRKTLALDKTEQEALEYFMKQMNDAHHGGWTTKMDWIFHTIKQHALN
Sequence of Cyclin-dependent kinase 4 (Homo sapiens) (P11802 whole entry): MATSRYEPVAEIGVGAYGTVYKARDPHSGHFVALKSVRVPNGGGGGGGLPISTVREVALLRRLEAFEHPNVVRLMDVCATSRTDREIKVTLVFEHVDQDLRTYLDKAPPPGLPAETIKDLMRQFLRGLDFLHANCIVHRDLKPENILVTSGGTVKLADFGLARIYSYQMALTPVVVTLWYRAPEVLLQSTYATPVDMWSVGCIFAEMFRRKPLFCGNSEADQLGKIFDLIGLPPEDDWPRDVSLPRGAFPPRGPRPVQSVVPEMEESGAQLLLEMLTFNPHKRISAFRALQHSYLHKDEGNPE
Sequence of Serine/threonine-protein kinase DCLK1 (Homo sapiens) (O15075 whole entry): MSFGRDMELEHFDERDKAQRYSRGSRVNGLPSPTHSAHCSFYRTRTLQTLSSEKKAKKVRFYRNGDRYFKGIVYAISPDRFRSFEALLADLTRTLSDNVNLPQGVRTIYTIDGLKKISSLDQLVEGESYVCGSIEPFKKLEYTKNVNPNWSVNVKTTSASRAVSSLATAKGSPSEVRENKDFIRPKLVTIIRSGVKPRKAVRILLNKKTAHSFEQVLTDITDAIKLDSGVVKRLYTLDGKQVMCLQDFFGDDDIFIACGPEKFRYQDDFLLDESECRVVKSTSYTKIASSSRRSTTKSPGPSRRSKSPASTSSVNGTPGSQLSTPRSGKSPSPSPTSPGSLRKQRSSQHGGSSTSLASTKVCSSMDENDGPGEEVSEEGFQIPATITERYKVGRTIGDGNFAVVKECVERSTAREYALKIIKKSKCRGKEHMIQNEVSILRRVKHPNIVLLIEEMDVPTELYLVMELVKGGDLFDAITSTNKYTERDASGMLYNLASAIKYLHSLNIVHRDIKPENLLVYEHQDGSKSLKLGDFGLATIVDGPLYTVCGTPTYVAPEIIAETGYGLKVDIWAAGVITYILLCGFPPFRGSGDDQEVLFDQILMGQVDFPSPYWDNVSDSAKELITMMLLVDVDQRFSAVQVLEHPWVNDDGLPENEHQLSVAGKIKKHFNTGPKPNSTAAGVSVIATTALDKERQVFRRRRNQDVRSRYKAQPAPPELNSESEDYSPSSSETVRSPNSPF
Sequence of TRAF2 and NCK-interacting protein kinase (Homo sapiens) (Q9UKE5 whole entry, looked up): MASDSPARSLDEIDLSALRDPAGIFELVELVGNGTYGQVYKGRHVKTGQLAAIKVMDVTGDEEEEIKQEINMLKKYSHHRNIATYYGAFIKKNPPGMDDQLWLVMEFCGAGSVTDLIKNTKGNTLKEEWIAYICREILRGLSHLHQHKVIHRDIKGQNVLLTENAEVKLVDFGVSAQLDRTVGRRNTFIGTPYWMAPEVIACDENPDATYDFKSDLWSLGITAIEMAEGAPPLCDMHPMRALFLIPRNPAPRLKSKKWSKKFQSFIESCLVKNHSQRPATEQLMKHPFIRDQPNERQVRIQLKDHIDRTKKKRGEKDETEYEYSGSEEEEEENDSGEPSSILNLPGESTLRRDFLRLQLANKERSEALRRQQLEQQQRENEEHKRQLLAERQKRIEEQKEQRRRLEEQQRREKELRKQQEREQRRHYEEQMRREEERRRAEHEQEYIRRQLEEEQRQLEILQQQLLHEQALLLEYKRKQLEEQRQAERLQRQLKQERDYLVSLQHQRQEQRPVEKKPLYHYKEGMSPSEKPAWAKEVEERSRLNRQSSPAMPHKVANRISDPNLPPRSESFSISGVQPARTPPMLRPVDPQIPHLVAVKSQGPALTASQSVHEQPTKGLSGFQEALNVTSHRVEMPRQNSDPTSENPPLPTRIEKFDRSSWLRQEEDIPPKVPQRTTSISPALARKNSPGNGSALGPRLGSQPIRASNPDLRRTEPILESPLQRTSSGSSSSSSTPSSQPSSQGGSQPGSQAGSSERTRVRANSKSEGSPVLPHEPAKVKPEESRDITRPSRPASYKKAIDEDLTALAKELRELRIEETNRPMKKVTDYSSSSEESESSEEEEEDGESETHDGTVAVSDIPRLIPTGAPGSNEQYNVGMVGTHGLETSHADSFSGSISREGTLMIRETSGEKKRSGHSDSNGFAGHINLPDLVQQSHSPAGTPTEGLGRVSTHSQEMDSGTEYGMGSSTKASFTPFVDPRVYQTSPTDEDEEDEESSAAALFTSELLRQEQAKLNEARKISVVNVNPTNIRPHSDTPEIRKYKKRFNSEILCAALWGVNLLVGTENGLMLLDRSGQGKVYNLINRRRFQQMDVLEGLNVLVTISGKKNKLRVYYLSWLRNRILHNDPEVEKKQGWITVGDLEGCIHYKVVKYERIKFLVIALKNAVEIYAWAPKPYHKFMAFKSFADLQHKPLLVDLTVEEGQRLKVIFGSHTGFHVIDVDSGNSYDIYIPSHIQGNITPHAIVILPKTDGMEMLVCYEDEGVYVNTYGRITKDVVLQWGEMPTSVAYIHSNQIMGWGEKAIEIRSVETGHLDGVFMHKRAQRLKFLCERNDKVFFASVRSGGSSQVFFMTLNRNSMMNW
Sequence of Serine/threonine-protein kinase RIO1 (Homo sapiens) (Q9BRS2 whole entry): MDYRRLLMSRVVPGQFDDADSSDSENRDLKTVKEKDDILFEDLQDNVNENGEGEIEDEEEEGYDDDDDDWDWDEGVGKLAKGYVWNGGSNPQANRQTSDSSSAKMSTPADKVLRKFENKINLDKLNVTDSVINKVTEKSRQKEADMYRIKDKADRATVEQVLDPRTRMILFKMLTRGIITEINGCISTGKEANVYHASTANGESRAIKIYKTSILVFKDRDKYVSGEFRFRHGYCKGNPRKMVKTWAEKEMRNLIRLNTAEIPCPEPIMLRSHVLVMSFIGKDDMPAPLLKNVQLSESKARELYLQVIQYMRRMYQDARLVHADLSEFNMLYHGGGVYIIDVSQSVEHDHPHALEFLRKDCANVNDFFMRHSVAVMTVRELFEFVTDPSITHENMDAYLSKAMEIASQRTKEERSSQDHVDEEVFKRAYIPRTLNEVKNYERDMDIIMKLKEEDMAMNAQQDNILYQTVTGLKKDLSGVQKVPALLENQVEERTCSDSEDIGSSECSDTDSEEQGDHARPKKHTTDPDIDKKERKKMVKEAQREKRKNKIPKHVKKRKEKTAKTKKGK
Sequence of Beta-2 adrenergic receptor (Homo sapiens) (P07550 whole entry, looked up): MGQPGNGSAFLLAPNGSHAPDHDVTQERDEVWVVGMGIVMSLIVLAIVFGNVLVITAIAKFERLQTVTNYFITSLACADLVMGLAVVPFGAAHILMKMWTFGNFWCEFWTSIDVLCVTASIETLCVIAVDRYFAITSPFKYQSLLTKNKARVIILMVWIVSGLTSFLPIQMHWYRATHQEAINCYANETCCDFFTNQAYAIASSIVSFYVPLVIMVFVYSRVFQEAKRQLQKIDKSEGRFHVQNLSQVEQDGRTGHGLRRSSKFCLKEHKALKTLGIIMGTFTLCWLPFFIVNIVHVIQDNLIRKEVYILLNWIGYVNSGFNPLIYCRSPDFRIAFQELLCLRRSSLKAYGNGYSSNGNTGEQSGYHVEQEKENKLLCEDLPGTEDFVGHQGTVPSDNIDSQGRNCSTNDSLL

Structure (SMILES): CCS(=O)(=O)c1cc2cc(C[C@](O)(CC(C)(C)c3ccc(F)cc3C(N)=O)C(F)(F)F)[nH]c2cn1
- residual activity [1]: 91%
- residual activity [2]: 52%
- residual activity [3]: 100%
- residual activity [4]: 89%
- residual activity [5]: 86%
- residual activity [6]: 100%
- residual activity [7]: 100%
- residual activity [8]: 100%
- residual activity [9]: 92%
- inhibition [10]: 13.1%
- inhibition [11]: -3.78%
- residual activity [12]: 87%
- residual activity [13]: 81%
- residual activity [14]: 100%
- inhibition [15]: 0.64%
- residual activity [16]: 97%
- residual activity [17]: 100%
- residual activity [18]: 100%
- residual activity [19]: 100%
- residual activity [20]: 99%
- residual activity [21]: 100%
- residual activity [22]: 100%
- residual activity [23]: 100%
- residual activity [24]: 92%
- residual activity [25]: 100%
- inhibition [26]: 4.71%
- residual activity [27]: 90%
- residual activity [28]: 55%
- residual activity [29]: 100%
- residual activity [30]: 95%
- residual activity [31]: 100%
- residual activity [32]: 100%
- residual activity [33]: 80%
- residual activity [34]: 83%
- residual activity [35]: 100%
- residual activity [36]: 99%
- residual activity [37]: 100%
- residual activity [38]: 96%
- residual activity [39]: 100%
- residual activity [40]: 98%
- residual activity [41]: 100%
- residual activity [42]: 100%
- residual activity [43]: 91%
- residual activity [44]: 100%

Structure (SMILES): CCS(=O)(=O)c1cc2cc(C[C@@](O)(CC(C)(C)c3ccc(F)cc3C(N)=O)C(F)(F)F)[nH]c2cn1
- residual activity [1]: 68%
- residual activity [2]: 61%
- residual activity [3]: 99%
- residual activity [4]: 73%
- residual activity [5]: 94%
- residual activity [6]: 100%
- residual activity [7]: 100%
- residual activity [8]: 100%
- residual activity [9]: 90%
- inhibition [10]: 18.2%
- inhibition [11]: -3.13%
- residual activity [12]: 51%
- residual activity [13]: 100%
- residual activity [14]: 88%
- inhibition [15]: 7.33%
- residual activity [16]: 57%
- residual activity [17]: 65%
- residual activity [18]: 100%
- residual activity [19]: 99%
- residual activity [20]: 99%
- residual activity [21]: 99%
- residual activity [22]: 92%
- residual activity [23]: 84%
- residual activity [24]: 71%
- residual activity [25]: 91%
- inhibition [26]: 15.2%
- residual activity [27]: 57%
- residual activity [28]: 100%
- residual activity [29]: 55%
- residual activity [30]: 89%
- residual activity [31]: 98%
- residual activity [32]: 100%
- residual activity [33]: 50%
- residual activity [34]: 72%
- residual activity [35]: 81%
- residual activity [36]: 100%
- residual activity [37]: 88%
- residual activity [38]: 97%
- residual activity [39]: 97%
- residual activity [40]: 100%
- residual activity [41]: 100%
- residual activity [42]: 92%
- residual activity [43]: 76%
- residual activity [44]: 42%
